Experimental data: the NIST ThermoML archive (doi:10.1016/j.fluid.2017.12.031)
Where “and” joins values, the source holds several entries; their conditions need not be identical. Identical values can stand only once.

Tests used:
[1] = 313.15 K; Liquid; Closed cell (Static) method
[2] = excess molar enthalpy (molar enthalpy of mixing); xn = mol fraction of the nth substance listed; settings: 101 kPa, Liquid, Flow calorimetry

Cc1ccc(C)c(C)c1 [1,2,4-trimethylbenzene]
Settings	vapor or sublimation pressure [kPa]
[1]	0.73

Cc1ccc(C)c(C)c1 [1,2,4-trimethylbenzene] + CCCC(C)O
excess molar enthalpy [kcal/mol], [2]
Settings	298.15 K	313.15 K
x2 = 0	0	0
x2 = 0.0499	0.144	0.149
x2 = 0.0987	–	0.237
x2 = 0.1012	0.218	–
x2 = 0.149	0.264	0.295
x2 = 0.1982	–	0.334
x2 = 0.2006	0.297	–
x2 = 0.2487	0.322	–
x2 = 0.2509	–	0.361
x2 = 0.298	0.338	–
x2 = 0.3002	–	0.382
x2 = 0.3485	0.35	–
x2 = 0.3507	–	0.392
x2 = 0.3979	0.358	0.399
x2 = 0.4482	0.36	–
x2 = 0.4504	–	0.4
x2 = 0.4996	0.356	0.397
x2 = 0.5476	–	0.386
x2 = 0.5496	0.349	–
x2 = 0.6005	–	0.369
x2 = 0.6006	0.334	–
x2 = 0.6482	–	0.346
x2 = 0.6502	0.313	–
x2 = 0.6987	–	0.318
x2 = 0.6988	0.289	–
x2 = 0.7479	–	0.285
x2 = 0.748	0.259	–
x2 = 0.7978	–	0.243
x2 = 0.7979	0.22	–
x2 = 0.8481	–	0.194
x2 = 0.8482	0.176	–
x2 = 0.8989	–	0.138
x2 = 0.899	0.124	–
x2 = 0.9501	–	0.0718
x2 = 0.9502	0.0647	–

Cc1ccc(C)c(C)c1 [1,2,4-trimethylbenzene] + CCCCCO
excess molar enthalpy [kcal/mol], [2]
Settings	298.15 K	313.15 K
x2 = 0	0	0
x2 = 0.0503	0.124	0.139
x2 = 0.0995	0.175	0.207
x2 = 0.15	0.204	0.248
x2 = 0.1995	0.22	0.273
x2 = 0.2501	0.233	–
x2 = 0.2502	–	0.289
x2 = 0.2997	0.241	0.297
x2 = 0.3481	0.243	0.3
x2 = 0.3998	0.24	0.3
x2 = 0.4481	0.234	–
x2 = 0.4482	–	0.295
x2 = 0.4995	0.223	0.283
x2 = 0.5495	0.21	–
x2 = 0.5496	–	0.268
x2 = 0.5985	0.194	–
x2 = 0.5986	–	0.25
x2 = 0.6482	0.175	0.227
x2 = 0.6985	0.153	–
x2 = 0.6986	–	0.203
x2 = 0.7494	0.129	–
x2 = 0.7495	–	0.173
x2 = 0.7991	0.104	0.142
x2 = 0.8492	0.0777	0.108
x2 = 0.8997	0.0527	0.0729
x2 = 0.9505	0.0253	0.0354

C=CCCCC [hex-1-ene]
Settings	vapor or sublimation pressure
[1]	44.91 kPa and 44.95 kPa

C=CCCCC [hex-1-ene] + CCCC(C)O
[2], x2 = 0
Settings	excess molar enthalpy [kcal/mol]
298.15 K	0
313.15 K	0

C=CCCCC [hex-1-ene] + CCCCCO
excess molar enthalpy [kcal/mol], [2]
Settings	298.15 K	313.15 K
x2 = 0	0	0
x2 = 0.0506	–	0.121
x2 = 0.0507	0.095	–
x2 = 0.1005	–	0.159
x2 = 0.1006	0.119	–
x2 = 0.152	–	0.179
x2 = 0.1522	0.134	–
x2 = 0.2027	–	0.192
x2 = 0.203	0.143	–
x2 = 0.2528	–	0.195
x2 = 0.2531	0.148	–
x2 = 0.3021	–	0.198
x2 = 0.3022	0.151	–
x2 = 0.3526	–	0.193
x2 = 0.353	0.15	–
x2 = 0.4026	–	0.19
x2 = 0.403	0.146	–
x2 = 0.4519	–	0.183
x2 = 0.4523	0.138	–
x2 = 0.5026	–	0.172
x2 = 0.503	0.129	–
x2 = 0.5524	–	0.159
x2 = 0.5529	0.118	–
x2 = 0.6035	–	0.144
x2 = 0.604	0.106	–
x2 = 0.6519	–	0.127
x2 = 0.6523	0.0912	–
x2 = 0.7019	0.0776	0.109
x2 = 0.7526	0.0629	0.0888
x2 = 0.8008	0.0478	–
x2 = 0.8025	–	0.0681
x2 = 0.8482	0.0348	–
x2 = 0.8517	–	0.0505
x2 = 0.9019	–	0.0316
x2 = 0.902	0.0208	–
x2 = 0.9513	0.00908	0.0139

CCCCCO [pentan-1-ol]
Settings	vapor or sublimation pressure
[1]	0.913 kPa and 0.918 kPa

CCCCCO [pentan-1-ol] + C=CCCCC
[2], x1 = 1
Settings	excess molar enthalpy [kcal/mol]
298.15 K	0
313.15 K	0

CCCCCO [pentan-1-ol] + Cc1ccc(C)c(C)c1
[2], x1 = 1
Settings	excess molar enthalpy [kcal/mol]
298.15 K	0
313.15 K	0

CCCC(C)O (configuration not stated) [pentan-2-ol]
Settings	vapor or sublimation pressure
[1]	2.281 kPa and 2.268 kPa

CCCC(C)O (configuration not stated) [pentan-2-ol] + C=CCCCC
excess molar enthalpy [kcal/mol], [2]
Settings	298.15 K	313.15 K
x1 = 0.05	–	0.141
x1 = 0.0503	0.117	–
x1 = 0.0999	0.158	0.196
x1 = 0.1511	0.183	–
x1 = 0.1512	–	0.229
x1 = 0.2015	0.202	–
x1 = 0.2017	–	0.254
x1 = 0.2513	0.216	–
x1 = 0.2516	–	0.266
x1 = 0.3027	0.225	–
x1 = 0.3028	–	0.277
x1 = 0.3512	0.23	–
x1 = 0.3513	–	0.282
x1 = 0.4032	0.234	–
x1 = 0.4034	–	0.282
x1 = 0.4509	–	0.278
x1 = 0.4525	0.234	–
x1 = 0.5014	–	0.271
x1 = 0.503	0.23	–
x1 = 0.5513	–	0.262
x1 = 0.5529	0.222	–
x1 = 0.6005	–	0.248
x1 = 0.6018	0.21	–
x1 = 0.6523	0.194	0.227
x1 = 0.702	0.175	0.205
x1 = 0.751	0.151	0.18
x1 = 0.8004	0.123	–
x1 = 0.8012	–	0.149
x1 = 0.85	0.0935	–
x1 = 0.8506	–	0.115
x1 = 0.9007	0.0574	–
x1 = 0.9012	–	0.0742
x1 = 0.9507	0.0268	–
x1 = 0.9509	–	0.0371
x1 = 1	0	0

CCCC(C)O (configuration not stated) [pentan-2-ol] + Cc1ccc(C)c(C)c1
[2], x1 = 1
Settings	excess molar enthalpy [kcal/mol]
298.15 K	0
313.15 K	0
